This note sets out measurements from patent publication US9814659B2, “Methods of lightening the skin” (Johnson & Johnson Consumer Inc., priority 2012, dated 2017).

The assay has as its system MatTek's MelanoDerm skin epidermal equivalent tissues (MEL-300-B; NHEK and NHM). Put plainly: Skin Epidermal Equivalents Model as a Skin Lightening Test (ΔL). The class given is cell-based, human. The source says:
Skin Epidermal Equivalents Model as a Skin Lightening Test (ΔL)
Skin epidermal equivalent tissues are available commercially from MatTek's MelanoDerm™ System and were used for the following tests. MatTek's MelanoDerm™ System consists of normal, human-derived epidermal keratinocytes (NHEK) and melanocytes (NHM) which have been cultured to form a multilayered, highly differentiated model of the human epidermis. Specifically, MEL-300-B tissues, each 9 mm in diameter were used in the following tests.
The test materials prepared in an appropriate vehicle and tested concentrations were applied topically to the skin model daily and the experiment lasted for 8 days. Measurement was taken on day 9.
The macroscopic and microscopic visual tissue darkening end points were measured by taking pictures with a digital camera. The Degree of Lightness for each tissue (L-Value) was measured using a spectrophotometer (Konica Minolta CM-2600d). The ΔL (degree of lightness as compared to control) for each test sample is calculated as per following formula: ΔL=L-value of treated sample−L-value of control sample.

Take `CC(C)=CCCC(C)=CCCC(C)=CCOc1ccc(CCC(=O)O)cc1` [M-1, 3-(4-Farnesyloxyphenyl)propionic acid]: the “Skin Lightening (ΔL Value)” value (concentration 0.5%, topical daily for 8 days, measured day 9) was 1.2. Where the note is “same concentration (0.5%) as E1”, the “Skin lightening efficacy compared with first extract E1” value is on record as “equal to first extract E1”.
